Measured values taken from patent US20120157388A1, “EXTERNAL COMPOSITION FOR SKIN” (Shiseido Company, Ltd., priority 2007, published 2012).

Assay: Stability evaluation of lotion (appearance and smell after storage)
Type: physicochemical
Conditions: 50° C., one month
Protocol: For L-lysyl-β-alanine hydrochloride (Example 2), L-lysine (Comparative Example 6), and β-alanine (Comparative Example 7), the following external composition for skin was prepared, and the stability thereof was evaluated.
50 g each of Example 2, Comparative Example 6 and
Comparative Example 7 was placed in a 50 ml screw tube and capped. After storing them in a 50° C. incubator for one month, changes in appearance and smell were judged according to the following criteria.

NCCCC[C@H](N)C(=O)NCCC(=O)O [L-lysyl-β-alanine]
stability in appearance (in words): excellently stable
stability in smell (in words): excellently stable
